Experimental data as given in patent publication US12569502B2, “Use of bile acids and derivatives thereof in preparation of GPR39 agonist” (PEKING UNIVERSITY, priority 2019, dated 2026).
Where two headings read alike, the source gives them in different places.

Assays:
Format in all cases: cell-based
[1] = biological target: T1, human GPR39 receptors on human GPR39-2 cell lines (Homo sapiens, UniProt O43194); experiment: FLIPR calcium imaging on human GPR39-2 cell line stably expressing human GPR39; settings: for intracellular calcium signal response of human GPR39-2: FIG. 9; for EC50: human GPR39-2 cells
T1 construct: P2A-mCherry (C)
T1 sequence (O43194 1-453): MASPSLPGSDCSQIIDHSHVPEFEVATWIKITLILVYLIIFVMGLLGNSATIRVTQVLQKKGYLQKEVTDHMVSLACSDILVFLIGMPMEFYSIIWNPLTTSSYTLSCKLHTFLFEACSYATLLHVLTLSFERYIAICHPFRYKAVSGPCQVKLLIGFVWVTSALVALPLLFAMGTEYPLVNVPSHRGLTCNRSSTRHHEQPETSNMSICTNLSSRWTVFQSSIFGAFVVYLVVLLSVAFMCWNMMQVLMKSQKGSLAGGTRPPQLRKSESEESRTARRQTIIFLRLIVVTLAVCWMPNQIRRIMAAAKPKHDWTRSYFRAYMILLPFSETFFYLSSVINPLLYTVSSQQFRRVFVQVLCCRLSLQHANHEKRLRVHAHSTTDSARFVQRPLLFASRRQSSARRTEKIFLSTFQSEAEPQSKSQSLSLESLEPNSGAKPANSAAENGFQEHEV
Source text: The human GPR39 cDNA vector was purchased from WZ Biosciences Inc., Shandong. It was cloned onto a lentiviral vector PLVXK-hGPR39-P2A-mCherry (FIG. 10) through PCR amplification using primers hGPR39-F (which sequence was shown as set forth in SEQshown as set forth in SEQ ID NO: 15) and hGPR39-R (which sequence was shown as set forth in SEQ shown as set forth in SEQ ID NO: 16), in which the sequence of the target gene human GPR39 cDNA was shown as set forth in SEQ shown as set forth in SEQ ID NO: 14. A cell line human GPR39-2 stably expressing human GPR39 gene was constructed according to the method of Example 1.

[2] = biological target: T2, GPR39 receptors on m39-20 cell lines (Mus musculus, UniProt Q5U431, T447P); experiment: FLIPR calcium imaging on m39-20 cell lines stably expressing murine-derived GPR39; settings: for intracellular calcium signals in m39-20 cell lines: FIG. 1; for intracellular calcium signaling response in m39-20 cells: absence of zinc ions; for change of activation efficacy after the addition of zinc ions: Table 1, FIG. 2; for activation capacity on GPR39 receptors among the bile acids: dose curves; for Bile acid + 4 μM zinc ions Efficacy / Only bile acid Efficacy: activation efficacy
T2 construct: P2A-mCherry (C); expressed in transfected cells
T2 sequence (Q5U431 1-456 T447P): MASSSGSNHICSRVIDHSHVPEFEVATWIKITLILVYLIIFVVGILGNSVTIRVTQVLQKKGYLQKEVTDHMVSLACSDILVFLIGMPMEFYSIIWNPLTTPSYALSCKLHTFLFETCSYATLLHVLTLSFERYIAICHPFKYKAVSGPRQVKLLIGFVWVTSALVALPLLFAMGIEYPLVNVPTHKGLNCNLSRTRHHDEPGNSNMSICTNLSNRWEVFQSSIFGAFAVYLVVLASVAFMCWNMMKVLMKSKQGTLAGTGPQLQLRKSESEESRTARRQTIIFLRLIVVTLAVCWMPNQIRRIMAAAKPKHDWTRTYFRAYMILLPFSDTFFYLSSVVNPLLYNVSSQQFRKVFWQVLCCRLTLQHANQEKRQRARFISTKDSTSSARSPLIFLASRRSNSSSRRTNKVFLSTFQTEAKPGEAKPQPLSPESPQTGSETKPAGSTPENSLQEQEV
Source text: Intracellular calcium imaging is a routine technique to study cell functions, the basic principle of which is to detect the concentration of the calcium ion in tissues or cells using a calcium indicator, thereby reflecting certain reactions in the tissues or cells. In the present application, the intracellular calcium released from a cell line that stably or transiently expresses GPR39 is detected using Fluo8-AM, a calcium fluorescent indicator, so as to determine the activation of the GPR39 receptor by the bile acid and derivative thereof.
HEK293T cells (purchased from ATCC) were seeded in a 6-well plate (coming Co.) at an appropriate density (about 0.5-2×10^5/well). When the cell density reached above 30%, the plasmid PLVXK-mGPR39-P2A-mCherry was transfected with Lipofectamine 3000 (Invitrogen) at a concentration of 2 μg per well. The cells were passaged 24 hours after transfection, the puromycin (gibco) was added into the medium at a concentration of 2 μg/mL for antibiotic screening of cells. After 2-4 days of continuous screening, the cells screened for puromycin resistance were trypsinized and screened by flow cytometry for monoclones with red fluorescence. And these monoclones were seeded in a 96-well plate and cultured in a medium without puromycin for around 10 days. Cell colonies with red fluorescence were sorted under a fluorescence microscope, trypsinized and then passaged and expanded in a 6-well plate. Cell lines m39-20 stably expressing murine-derived GPR39 were obtained through the above methods.
Calcium dye Fluo8-AM (ATT bioquest Co.) was dissolved in DMSO solvent to formulate a stock solution of 1 μg/μL. […] After then, the calcium dye working solution was replaced with the 4K solution (50 μL per well), and acclimated for 5 min at room temperature for the subsequent calcium imaging experiment.
Bile acids and derivatives thereof as listed in Table 1 below were dissolved in dimethyl sulfoxide (DMSO, Sigma Co.) solvent to formulate a stock solution of 50 mM, which was stored at −20° C. During calcium imaging with FLIPR, the drug was diluted with the above 4K solution into a working concentration of 400 μM, and packaged into another 96-well plate. […] The instrument parameters were set so that 50 μL of the drug solution may be added into the culture wells within 2 s. The fluorescence recording result within the first 30 seconds was used as the baseline value. The FLIPR robot arm was programmed to automatically add bile acids and derivatives thereof into the cell sample culture wells at the 31st second. 1% of DMSO solvent was used as the blank control.
After that, the calcium dye working solution was replaced with a 4K solution containing 4 μM zinc ions (50 μL per well), followed by acclimation for 5 min at room temperature.

HEK293T cells = experiment: FLIPR calcium imaging on HEK293T cells not expressing GPR39; settings: 293T cells not expressing GPR39
Protocol: Bile acids and derivatives thereof as listed in Table 1 below were dissolved in dimethyl sulfoxide (DMSO, Sigma Co.) solvent to formulate a stock solution of 50 mM, which was stored at −20° C. During calcium imaging with FLIPR, the drug was diluted with the above 4K solution into a working concentration of 400 μM, and packaged into another 96-well plate. The drug solution and the cell samples in Example 2.2 were placed into the designated position of the FLIPR instrument (MolecularDevices Co.) respectively. The instrument parameters were set so that 50 μL of the drug solution may be added into the culture wells within 2 s. The fluorescence recording result within the first 30 seconds was used as the baseline value. The FLIPR robot arm was programmed to automatically add bile acids and derivatives thereof into the cell sample culture wells at the 31st second. 1% of DMSO solvent was used as the blank control.
The results of FLIPR calcium imaging experiment of the bile acids and derivatives thereof are shown in FIG. 1, wherein the horizontal coordinate represents the time, and the vertical coordinate represents the relative fluorescence intensity.

[3] = Bile acid + 4 μM zinc ions EC50, m39-20 cells, 4 μM zinc ions
[4] = m39-20 cells, no zinc ions, read-out: Only bile acid EC50

Compound	intracellular calcium signal response of human GPR39-2 [1]	EC50 ([1]; no added zinc ions, read-out: EC50 Only agonist)	EC50 ([1]; read-out: EC50 Agonist + 4 μM zinc ions, 4 μM zinc ions)	intracellular calcium signals in m39-20 cell lines [2]	intracellular calcium signaling response in m39-20 cells [2]	change of activation efficacy after the addition of zinc ions ([2]; m39-20 cells)	activation capacity on GPR39 receptors among the bile acids ([2]; m39-20 cells)	EC50 [2, 3]	Bile acid + 4 μM zinc ions Efficacy ([2]; m39-20 cells, 4 μM zinc ions)	Only bile acid Efficacy ([2]; m39-20 cells, no zinc ions)	activation of GPR39 receptors in the presence of zinc ions ([2]; m39-20 cells, 4 μM zinc ions)	EC50 [2, 4]	calcium signals on HEK293T cells not expressing GPR39 (HEK293T cells)
C[C@H](CCC(=O)NCCS(=O)(=O)[O-])[C@H]1CC[C@H]2[C@@H]3CC[C@@H]4C[C@H](OS(=O)(=O)[O-])CC[C@]4(C)[C@H]3CC[C@]12C.[Na+].[Na+] [TLCAS]	capable of inducing intracellular calcium signal response	69.4 ± 5 µM	9.6 ± 6.3 µM	varying extents of intracellular calcium signals	strong intracellular calcium signaling response	increases slightly	strongest activation capacity						
C[C@H](CCC(=O)O)[C@H]1CC[C@H]2[C@@H]3[C@H](O)C[C@@H]4C[C@H](O)CC[C@]4(C)[C@H]3CC[C@]12C [CDCA, Chenodeoxycholic acid]								75.1 ± 7.6 µM	85 ± 5.2%	0%	capable of activating GPR39 receptors	> 200 µM	may induce observable calcium signals
C[C@H](CCC(=O)O)[C@H]1CC[C@H]2[C@@H]3CC[C@@H]4C[C@H](O)CC[C@]4(C)[C@H]3C[C@H](O)[C@]12C [DCA, Deoxycholic acid]								58.4 ± 10 µM	93.1 ± 1.4%	0%	capable of activating GPR39 receptors	> 200 µM	may induce observable calcium signals
C[C@H](CCC(=O)NCC(=O)O)[C@H]1CC[C@H]2[C@@H]3CC[C@@H]4C[C@H](OS(=O)(=O)O)CC[C@]4(C)[C@H]3CC[C@]12C [GLCAS]	capable of inducing intracellular calcium signal response			varying extents of intracellular calcium signals	strong intracellular calcium signaling response	increases slightly	strongest activation capacity	8 ± 1.8 µM	110.8 ± 4.1%	98.8 ± 4.6%		47.9 ± 9.4 µM	
C[C@H](CCC(=O)NCCS(=O)(=O)O)[C@H]1CC[C@H]2[C@@H]3[C@H](O)C[C@@H]4C[C@H](OS(=O)(=O)O)CC[C@]4(C)[C@H]3CC[C@]12C [TCDCAS]				varying extents of intracellular calcium signals		obviously improved		> 100 µM	39.7 ± 3.3%	0%		> 200 µM	
